Laboratory results taken from US20220041627A1, “PRODRUGS OF ANTI-CANCER AND ANTI-AUTOIMMUNE DISEASES THERAPEUTIC AGENTS, AND METHODS OF MAKING AND USE THEREOF” (UNIVERSITY OF MARYLAND, BALTIMORE, priority 2018, published 2022).

Experiments:
Format in all cases: cell-based, human
CCRF-CEM = assay: NCI-60 growth inhibition, CCRF-CEM; settings: Leukemia CCRF-CEM, 48 h
Description: (§1) The anticancer effects of compounds 1a-1b against 60 human cancer cell lines (the Developmental Therapeutics Program of NCI) were studied. The cell lines were derived from different cancer types including leukemia, non-small-cell lung cancer, colon cancer, CNS cancer, melanoma, ovarian cancer, renal cancer, prostate cancer, and breast cancer (Table 1; the assay protocol can be found at: https://dtp.cancer.gov/default.htm). Compound 1a caused over 50% growth inhibition for most tested cell lines. […] Without wishing to be bound by any particular theory, it is believed that the differences in the anticancer effects between compounds 1a and 1b may be due to the more favorable cell membrane permeability of the boronic ester 1a.

HL-60(TB) = assay: NCI-60 growth inhibition, HL-60(TB); settings: Leukemia HL-60(TB), 48 h
Description: as §1

RPMI-8226 = assay: NCI-60 growth inhibition, RPMI-8226
Description: as §1

EKVX = assay: NCI-60 growth inhibition, EKVX; settings: Non-Small Cell lung Cancer EKVX, 48 h
Description: as §1

HOP-92 = assay: NCI-60 growth inhibition, HOP-92
Description: as §1

NCI-H226 = assay: NCI-60 growth inhibition, NCI-H226
Description: as §1

NCI-H322M = assay: NCI-60 growth inhibition, NCI-H322M; settings: Non-Small Cell lung Cancer NCI-H322M, 48 h
Description: as §1

NCI-H460 = assay: NCI-60 growth inhibition, NCI-H460
Description: as §1

HCT-15 = assay: NCI-60 growth inhibition, HCT-15
Description: as §1

SF-295 = assay: NCI-60 growth inhibition, SF-295
Description: as §1

MALME-3M = assay: NCI-60 growth inhibition, MALME-3M; settings: Melanoma MALME-3M, 48 h
Description: as §1

MDA-MB-435 = assay: NCI-60 growth inhibition, MDA-MB-435
Description: as §1

SK-MEL-2 = assay: NCI-60 growth inhibition, SK-MEL-2
Description: as §1

SK-MEL-5 = assay: NCI-60 growth inhibition, SK-MEL-5
Description: as §1

UACC-62 = assay: NCI-60 growth inhibition, UACC-62
Description: as §1

OVCAR-5 = assay: NCI-60 growth inhibition, OVCAR-5
Description: as §1

OVCAR-8 = assay: NCI-60 growth inhibition, OVCAR-8
Description: as §1

ACHN = assay: NCI-60 growth inhibition, ACHN; settings: Renal Cancer ACHN, 48 h
Description: as §1

SN12C = assay: NCI-60 growth inhibition, SN12C; settings: Renal Cancer SN12C, 48 h
Description: as §1

γH2AX = γH2AX immunofluorescence assay in MCF7 cells; settings: 48 h
Procedure: (§2) FIGS. 4A and 4B illustrate the effect of compounds 1a-1b in apoptosis. FIG. 4A: immunofluorescence of DNA cleavage protein γH2Ax was enhanced by using 5-FU and prodrugs 1a-1b. FIG. 4B: immunoblot analysis of MCF-7 cells treated with 5-FU, prodrugs 1a-1b for apoptosis markers PARP1 and Caspase 3. The cells were treated for 48 h with the indicated concentrations of compounds.
Immunohistochemistry Analysis. MCF7 cells were seeded on poly-D-lysine coated slides. Compounds were incubated with cells for 48 h. Following treatment, cells were washed once in PBS and fixed in 10% formalin for 20 min at room temperature. Methanol was used to permeabilize the cells for 10 min and PBS wash was carried out. Bovine serum albumin was used for 1 h blocking and primary antibodies for γH2AX (SCBT, #sc-517348) was incubated with the cells overnight. Fluorescent secondary antibodies were incubated with cells along with DAPI. Cells were washed trice with PBS and the slides were mounted prior to confocal imaging.
(§3) To understand the mechanism of action of prodrugs 1a-1b, the impact of the treatment of compounds 1a-1b on the γH2AX formation in MCF7 cells were determined using immunofluorescence assay (FIG. 4A). […] The effects of prodrugs 1a-1b on the PARP1 and caspase 3 cleavage in MCF7 cells were also determined using Western blots assays (FIG. 4B). […] Treatment of 5-FU and compounds 1a-1b increased the levels of cleavage of PARP1 and caspase 3 in MCF7 cells, as compared with that in the vehicle-treated controls. Therefore, prodrugs 1a-1b, similar to 5-FU, can induce MCF7 cell apoptosis, which might contribute to their pharmacological actions.

PARP1 = assay: Western blot of PARP1 in MCF7 cells; settings: 48 h; for expression level of PARP1: compared to vehicle-treated cells; for level of cleavage of PARP1: compared to vehicle-treated controls
Procedure: as §2
(§4) Western Blot Analysis. Treated cells were washed once with PBS and lysed with RIPA lysis buffer (Santa Cruz Biotechnology, SCBT, #24948) supplemented with sodium orthovanadate, PMSF, protease and phosphatase inhibitor cocktails (Sigma Aldrich). Cell lysates were centrifuge for 15 min at 14,000×g and the supernatant was used for immunoblotting. Protein concentration was normalized for the samples and resolved on a 10-13% SDS-PAGE gel. Following transfer to nitrocellulose membrane, specific mouse primary antibodies from SCBT (PARP1 #sc-8007, caspase 3 #sc-7272) and Cell Signaling (cleaved PARP1 #9541, cleaved caspase-3 #9664) were added and incubated overnight. Secondary antibodies corresponding to the host of the primary antibodies was further incubated with the membrane and washed three times to remove excess antibodies. Odyssey Fc Imaging System (LI-COR, Lincoln, Nebr.) was used to quantify the chemiluminescent of the proteins.
as §3

caspase 3 = assay: Western blot of caspase 3 in MCF7 cells; settings: 48 h; for expression level of caspase 3: compared to vehicle-treated cells; for level of cleavage of caspase 3: compared to vehicle-treated controls
Procedure: as §2, §4, §3

Which results are given for `CC1(C)OB(c2ccc(Cn3cc(F)c(=O)[nH]c3=O)cc2)OC1(C)C` [Compound 1a, 5-Fluoro-1-(4-(4,4,5,5-tetramethyl-1,3,2-dioxaborolan-2-yl)benzyl)pyrimidine-2,4(1H,3H)-dione]?
inhibition at 50 µM (CCRF-CEM; Homo sapiens): 62%; inhibition at 50 µM (HL-60(TB); Homo sapiens): 68%; inhibition at 50 µM (RPMI-8226; Homo sapiens, Leukemia RPMI-8226, 48 h): 32%; inhibition at 50 µM (EKVX; Homo sapiens): 28%; inhibition at 50 µM (HOP-92; Homo sapiens, Non-Small Cell lung Cancer HOP-92, 48 h): 67%; inhibition at 50 µM (NCI-H226; Homo sapiens, Non-Small Cell lung Cancer NCI-H226, 48 h): 36%; inhibition at 50 µM (NCI-H322M; Homo sapiens): 14%; inhibition at 50 µM (NCI-H460; Homo sapiens, Non-Small Cell lung Cancer NCI-H460, 48 h): 66%; inhibition at 50 µM (HCT-15; Homo sapiens, Colon Cancer HCT-15, 48 h): 32%; inhibition at 50 µM (SF-295; Homo sapiens, CNS Cancer SF-295, 48 h): 14%; inhibition at 50 µM (MALME-3M; Homo sapiens): 55%; inhibition at 50 µM (MDA-MB-435; Homo sapiens, Melanoma MDA-MB-435, 48 h): 96%; inhibition at 50 µM (SK-MEL-2; Homo sapiens, Melanoma SK-MEL-2, 48 h): 59%; inhibition at 50 µM (SK-MEL-5; Homo sapiens, Melanoma SK-MEL-5, 48 h): 61%; inhibition at 50 µM (UACC-62; Homo sapiens, Melanoma UACC-62, 48 h): 71%; inhibition at 50 µM (OVCAR-5; Homo sapiens, Ovarian Cancer OVCAR-5, 48 h): 30%; inhibition at 50 µM (OVCAR-8; Homo sapiens, Ovarian Cancer OVCAR-8, 48 h): 25%; inhibition at 50 µM (ACHN; Homo sapiens): 8%; inhibition at 50 µM (SN12C; Homo sapiens): 19%; γH2AX formation (γH2AX): dramatically increased; expression level of PARP1 (PARP1): significantly reduced; level of cleavage of PARP1 (PARP1): increased; expression level of caspase 3 (caspase 3): significantly reduced; level of cleavage of caspase 3 (caspase 3): increased

`O=c1[nH]c(=O)n(Cc2ccc(B(O)O)cc2)cc1F` [Compound 1b, (4-((5-Fluoro-2,4-dioxo-3,4-dihydropyrimidin-I(2H)-yl)methyl)phenyl)boronic acid] was tested. Which “Growth Inhibition (%)” value (CCRF-CEM; 50 μM) did it give?
Its value is 7%.

What about the “Growth Inhibition (%)” value (HL-60(TB); 50 μM) of the same molecule?
Its value is 11%.

What about the “Growth Inhibition (%)” value (RPMI-8226; Leukemia RPMI-8226, 50 μM, 48 h) of the same molecule?
Its value is 2%.

And the “Growth Inhibition (%)” value (EKVX; 50 μM)?
Its value is 16%.

What about the “Growth Inhibition (%)” value (HOP-92; Non-Small Cell lung Cancer HOP-92, 50 μM, 48 h) of the same molecule?
Its value is 35%.

What about the “Growth Inhibition (%)” value (NCI-H226; Non-Small Cell lung Cancer NCI-H226, 50 μM, 48 h) of the same molecule?
Its value is 19%.

And the “Growth Inhibition (%)” value (NCI-H322M; 50 μM)?
Its value is 12%.

And the “Growth Inhibition (%)” value (NCI-H460; Non-Small Cell lung Cancer NCI-H460, 50 μM, 48 h)?
Its value is 1%.

And the “Growth Inhibition (%)” value (HCT-15; Colon Cancer HCT-15, 50 μM, 48 h)?
Its value is 10%.

What about the “Growth Inhibition (%)” value (SF-295; CNS Cancer SF-295, 50 μM, 48 h) of the same molecule?
Its value is 5%.

What about the “Growth Inhibition (%)” value (MALME-3M; 50 μM) of the same molecule?
Its value is 32%.

What about the “Growth Inhibition (%)” value (MDA-MB-435; Melanoma MDA-MB-435, 50 μM, 48 h) of the same molecule?
The value was 65%.

And the “Growth Inhibition (%)” value (SK-MEL-2; Melanoma SK-MEL-2, 50 μM, 48 h)?
The value was 7%.

And the “Growth Inhibition (%)” value (SK-MEL-5; Melanoma SK-MEL-5, 50 μM, 48 h)?
Its value is 10%.

What about the “Growth Inhibition (%)” value (UACC-62; Melanoma UACC-62, 50 μM, 48 h) of the same molecule?
The value was 30%.

What about the “Growth Inhibition (%)” value (OVCAR-5; Ovarian Cancer OVCAR-5, 50 μM, 48 h) of the same molecule?
Its value is 19%.

And the “Growth Inhibition (%)” value (OVCAR-8; Ovarian Cancer OVCAR-8, 50 μM, 48 h)?
Its value is 6%.

What about the “Growth Inhibition (%)” value (ACHN; 50 μM) of the same molecule?
Its value is 0%.

And the “Growth Inhibition (%)” value (SN12C; 50 μM)?
Its value is 7%.

What about the γH2AX formation (γH2AX) of the same molecule?
Its γH2AX formation is “dramatically increased”.

What about the “expression level of PARP1” value (PARP1) of the same molecule?
The value was “significantly reduced”.

And the “level of cleavage of PARP1” value (PARP1)?
The value was “increased”.

What about the “expression level of caspase 3” value (caspase 3) of the same molecule?
Its value is “significantly reduced”.

What about the “level of cleavage of caspase 3” value (caspase 3) of the same molecule?
Its value is “increased”.
